# Reference: PubChem BioAssay (NCI)
#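 Cells were grown in 96-well plates and exposed to each compound for 48 hours at five concentrations; endpoints were interpolated linearly between bracketing concentrations, or set to the highest concentration if not reached. GI50 is the concentration that inhibits growth by half. TGI: total growth inhibition.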
# Key:
# Assay in all cases: DTP human tumour cell line panel, 48 h
# HT29 colon = tested on: HT29 colon
# CCRF-CEM leukemia = tested on: CCRF-CEM leukemia
# COLO 205 colon = tested on: COLO 205 colon
# MOLT-4 leukemia = tested on: MOLT-4 leukemia
# NCI-H23 lung = tested on: NCI-H23 lung
# MCF7 breast = tested on: MCF7 breast
# RXF 393 renal = tested on: RXF 393 renal
# HS 578T breast = tested on: HS 578T breast
# BT-549 breast = tested on: BT-549 breast
# RPMI-8226 leukemia = tested on: RPMI-8226 leukemia
# A498 renal = tested on: A498 renal
# SF-539 CNS = tested on: SF-539 CNS
# SK-MEL-2 melanoma = tested on: SK-MEL-2 melanoma
# UO-31 renal = tested on: UO-31 renal
# NCI-H226 lung = tested on: NCI-H226 lung
# MDA-MB-435 = tested on: MDA-MB-435
# UACC-62 melanoma = tested on: UACC-62 melanoma
# SNB-19 CNS = tested on: SNB-19 CNS
# PC-3 prostate = tested on: PC-3 prostate
# OVCAR-5 ovarian = tested on: OVCAR-5 ovarian
# SK-MEL-5 melanoma = tested on: SK-MEL-5 melanoma
# MALME-3M melanoma = tested on: MALME-3M melanoma
# KM12 colon = tested on: KM12 colon
# NCI-H522 lung = tested on: NCI-H522 lung
# SN12C renal = tested on: SN12C renal
# SR leukemia = tested on: SR leukemia
# UACC-257 melanoma = tested on: UACC-257 melanoma
# HCT-116 colon = tested on: HCT-116 colon
# MDA-MB-231 breast = tested on: MDA-MB-231 breast
# ACHN renal = tested on: ACHN renal
# OVCAR-3 ovarian = tested on: OVCAR-3 ovarian
# T-47D breast = tested on: T-47D breast
# 786-0 renal = tested on: 786-0 renal
# LOX IMVI melanoma = tested on: LOX IMVI melanoma
# NCI-H460 lung = tested on: NCI-H460 lung
# U251 CNS = tested on: U251 CNS
# HOP-92 NSCLC = tested on: HOP-92 NSCLC
# DU-145 prostate = tested on: DU-145 prostate
# HCC-2998 colon = tested on: HCC-2998 colon
# SK-OV-3 ovarian = tested on: SK-OV-3 ovarian
# HL-60(TB) leukemia = tested on: HL-60(TB) leukemia
# NCI/ADR-RES ovarian = tested on: NCI/ADR-RES ovarian
# TK-10 renal = tested on: TK-10 renal
# OVCAR-4 ovarian = tested on: OVCAR-4 ovarian
# K-562 leukemia = tested on: K-562 leukemia
# SW-620 colon = tested on: SW-620 colon
# HOP-62 NSCLC = tested on: HOP-62 NSCLC
# EKVX NSCLC = tested on: EKVX NSCLC
# A549 NSCLC = tested on: A549 NSCLC
# SF-295 CNS = tested on: SF-295 CNS
# SNB-75 CNS = tested on: SNB-75 CNS
# HCT-15 colon = tested on: HCT-15 colon
# SF-268 CNS = tested on: SF-268 CNS
# IGROV1 ovarian = tested on: IGROV1 ovarian
# M14 melanoma = tested on: M14 melanoma
# SK-MEL-28 melanoma = tested on: SK-MEL-28 melanoma
# CAKI-1 renal = tested on: CAKI-1 renal
# OVCAR-8 ovarian = tested on: OVCAR-8 ovarian
# MDA-N = tested on: MDA-N
structure (smiles),measurement,setting,value
O=C(O)CSc1cc(NS(=O)(=O)c2ccc(Br)cc2)c2ccccc2c1O,GI50,HT29 colon,18.1 µM
same,TGI,HT29 colon,78.1 µM
same,GI50,CCRF-CEM leukemia,4.37 µM
same,TGI,CCRF-CEM leukemia,> 44.8 µM
same,GI50,COLO 205 colon,13.1 µM
same,TGI,COLO 205 colon,28.4 µM
same,GI50,MOLT-4 leukemia,3.08 µM
same,TGI,MOLT-4 leukemia,> 23.3 µM
same,GI50,NCI-H23 lung,7.25 µM
same,TGI,NCI-H23 lung,38 µM
same,GI50,MCF7 breast,5.71 µM
same,TGI,MCF7 breast,19.8 µM
same,GI50,RXF 393 renal,13.8 µM
same,TGI,RXF 393 renal,27.9 µM
same,GI50,HS 578T breast,7.65 µM
same,TGI,HS 578T breast,80.1 µM
same,GI50,BT-549 breast,16.2 µM
same,TGI,BT-549 breast,30.5 µM
same,GI50,RPMI-8226 leukemia,5.33 µM
same,TGI,RPMI-8226 leukemia,29.9 µM
same,GI50,A498 renal,18.3 µM
same,TGI,A498 renal,34.7 µM
same,GI50,SF-539 CNS,17.8 µM
same,TGI,SF-539 CNS,32.8 µM
same,GI50,SK-MEL-2 melanoma,9.92 µM
same,TGI,SK-MEL-2 melanoma,28.6 µM
same,GI50,UO-31 renal,12 µM
same,TGI,UO-31 renal,25.2 µM
same,GI50,NCI-H226 lung,20.1 µM
same,TGI,NCI-H226 lung,44.9 µM
same,GI50,MDA-MB-435,1.88 µM
same,TGI,MDA-MB-435,3.41 µM
same,GI50,UACC-62 melanoma,7.81 µM
same,TGI,UACC-62 melanoma,23.4 µM
same,GI50,SNB-19 CNS,17.1 µM
same,TGI,SNB-19 CNS,34.2 µM
same,GI50,PC-3 prostate,5.78 µM
same,TGI,PC-3 prostate,43.8 µM
same,GI50,OVCAR-5 ovarian,21.6 µM
same,TGI,OVCAR-5 ovarian,47.1 µM
same,GI50,SK-MEL-5 melanoma,14.7 µM
same,TGI,SK-MEL-5 melanoma,27.9 µM
same,GI50,MALME-3M melanoma,8.02 µM
same,TGI,MALME-3M melanoma,21.1 µM
same,GI50,KM12 colon,11.6 µM
same,TGI,KM12 colon,25.7 µM
same,GI50,NCI-H522 lung,16.2 µM
same,TGI,NCI-H522 lung,33.7 µM
same,GI50,SN12C renal,2.27 µM
same,TGI,SN12C renal,5.44 µM
same,GI50,SR leukemia,17.8 µM
same,TGI,SR leukemia,> 68.1 µM
same,GI50,UACC-257 melanoma,4.95 µM
same,TGI,UACC-257 melanoma,12.1 µM
same,GI50,HCT-116 colon,5.65 µM
same,TGI,HCT-116 colon,16.2 µM
same,GI50,MDA-MB-231 breast,2.72 µM
same,TGI,MDA-MB-231 breast,8.08 µM
same,GI50,ACHN renal,12.8 µM
same,TGI,ACHN renal,26.6 µM
same,GI50,OVCAR-3 ovarian,2.58 µM
same,TGI,OVCAR-3 ovarian,9.09 µM
same,GI50,T-47D breast,4.84 µM
same,TGI,T-47D breast,23.1 µM
same,GI50,786-0 renal,19.9 µM
same,TGI,786-0 renal,38.3 µM
same,GI50,LOX IMVI melanoma,3.14 µM
same,TGI,LOX IMVI melanoma,12.1 µM
same,GI50,NCI-H460 lung,18.8 µM
same,TGI,NCI-H460 lung,37.4 µM
same,GI50,U251 CNS,15 µM
same,TGI,U251 CNS,30.9 µM
same,GI50,HOP-92 NSCLC,13.5 µM
same,TGI,HOP-92 NSCLC,31.6 µM
same,GI50,DU-145 prostate,16.5 µM
same,TGI,DU-145 prostate,30.1 µM
same,GI50,HCC-2998 colon,18.4 µM
same,TGI,HCC-2998 colon,33.9 µM
same,GI50,SK-OV-3 ovarian,18.7 µM
same,TGI,SK-OV-3 ovarian,33.2 µM
same,GI50,HL-60(TB) leukemia,3.05 µM
same,TGI,HL-60(TB) leukemia,> 26.8 µM
same,GI50,NCI/ADR-RES ovarian,3.11 µM
same,TGI,NCI/ADR-RES ovarian,13.8 µM
same,GI50,TK-10 renal,20.3 µM
same,TGI,TK-10 renal,34.7 µM
same,GI50,OVCAR-4 ovarian,1.62 µM
same,TGI,OVCAR-4 ovarian,3.05 µM
same,GI50,K-562 leukemia,19.7 µM
same,TGI,K-562 leukemia,> 59.6 µM
same,GI50,SW-620 colon,14.4 µM
same,TGI,SW-620 colon,33.7 µM
same,GI50,HOP-62 NSCLC,17.9 µM
same,TGI,HOP-62 NSCLC,31.9 µM
same,GI50,EKVX NSCLC,13.8 µM
same,TGI,EKVX NSCLC,32.8 µM
same,GI50,A549 NSCLC,22.8 µM
same,TGI,A549 NSCLC,42.6 µM
same,GI50,SF-295 CNS,16 µM
same,TGI,SF-295 CNS,30.1 µM
same,GI50,SNB-75 CNS,24 µM
same,TGI,SNB-75 CNS,42.4 µM
same,GI50,HCT-15 colon,13.3 µM
same,TGI,HCT-15 colon,30.7 µM
same,GI50,SF-268 CNS,8.18 µM
same,TGI,SF-268 CNS,23.4 µM
same,GI50,IGROV1 ovarian,3.03 µM
same,TGI,IGROV1 ovarian,8.76 µM
same,GI50,M14 melanoma,15.1 µM
same,TGI,M14 melanoma,29.5 µM
same,GI50,SK-MEL-28 melanoma,14.5 µM
same,TGI,SK-MEL-28 melanoma,29 µM
same,GI50,CAKI-1 renal,14.6 µM
same,TGI,CAKI-1 renal,29.4 µM
same,GI50,OVCAR-8 ovarian,3.73 µM
same,TGI,OVCAR-8 ovarian,11 µM
NC1=C(c2nc(-c3ccccc3)cs2)C(c2ccco2)c2c(c3ccccc3oc2=O)O1 (stereo unspecified),TGI,HT29 colon,> 100 µM
same,TGI,CCRF-CEM leukemia,> 100 µM
same,TGI,COLO 205 colon,> 100 µM
same,TGI,NCI-H23 lung,> 100 µM
same,TGI,MCF7 breast,> 100 µM
same,TGI,RXF 393 renal,> 100 µM
same,TGI,HS 578T breast,> 100 µM
same,TGI,BT-549 breast,> 100 µM
same,TGI,A498 renal,> 100 µM
same,TGI,SF-539 CNS,> 100 µM
same,TGI,SK-MEL-2 melanoma,> 100 µM
same,TGI,UO-31 renal,> 100 µM
same,TGI,MDA-N,> 100 µM
same,TGI,NCI-H226 lung,> 100 µM
same,TGI,MDA-MB-435,> 100 µM
same,TGI,UACC-62 melanoma,> 100 µM
same,TGI,SNB-19 CNS,> 100 µM
same,TGI,PC-3 prostate,> 100 µM
same,TGI,OVCAR-5 ovarian,> 100 µM
same,TGI,SK-MEL-5 melanoma,> 100 µM
same,TGI,MALME-3M melanoma,> 100 µM
same,TGI,NCI-H522 lung,> 100 µM
same,TGI,SN12C renal,> 100 µM
same,TGI,SR leukemia,> 100 µM
same,TGI,UACC-257 melanoma,> 100 µM
same,TGI,HCT-116 colon,> 100 µM
same,TGI,MDA-MB-231 breast,> 100 µM
same,TGI,ACHN renal,> 100 µM
same,TGI,OVCAR-3 ovarian,> 100 µM
same,TGI,786-0 renal,> 100 µM
same,TGI,LOX IMVI melanoma,> 100 µM
same,TGI,NCI-H460 lung,> 100 µM
same,TGI,U251 CNS,> 100 µM
same,TGI,HOP-92 NSCLC,> 100 µM
same,TGI,DU-145 prostate,> 100 µM
same,TGI,HCC-2998 colon,> 100 µM
same,TGI,SK-OV-3 ovarian,> 100 µM
same,TGI,HL-60(TB) leukemia,> 100 µM
same,TGI,NCI/ADR-RES ovarian,> 100 µM
same,TGI,TK-10 renal,> 100 µM
same,TGI,OVCAR-4 ovarian,> 100 µM
same,TGI,K-562 leukemia,> 100 µM
same,TGI,SW-620 colon,> 100 µM
same,TGI,HOP-62 NSCLC,> 100 µM
same,TGI,EKVX NSCLC,> 100 µM
same,TGI,A549 NSCLC,> 100 µM
same,TGI,SF-295 CNS,> 100 µM
same,TGI,SNB-75 CNS,> 100 µM
same,TGI,HCT-15 colon,> 100 µM
same,TGI,SF-268 CNS,> 100 µM
same,TGI,IGROV1 ovarian,> 100 µM
same,TGI,M14 melanoma,> 100 µM
same,TGI,SK-MEL-28 melanoma,> 100 µM
same,TGI,CAKI-1 renal,> 100 µM
same,TGI,OVCAR-8 ovarian,> 100 µM
